Measured values taken from ChEMBL document CHEMBL4311944, “Discovery of 3-Oxabicyclo[4.1.0]heptane, a Non-nitrogen Containing Morpholine Isostere, and Its Application in Novel Inhibitors of the PI3K-AKT-mTOR Pathway” (J Med Chem, 2019).
Converted amounts (≈) assume the structure as drawn.

Experiments:
[1] = Inhibition of ligand binding to mTORC1/mTORC2 in human HuT78 cells after 2 hrs by kinobead competition binding assay; type: cell-based
[2] = biological target: T1, Phosphatidylinositol 4,5-bisphosphate 3-kinase catalytic subunit delta isoform (Homo sapiens, UniProt O00329); test: Inhibition of PI3Kdelta (unknown origin) using PIP2 as substrate preincubated for 15 mins followed by substrate addition and measured after 1 hr by HTRF assay
T1 sequence (O00329 whole entry): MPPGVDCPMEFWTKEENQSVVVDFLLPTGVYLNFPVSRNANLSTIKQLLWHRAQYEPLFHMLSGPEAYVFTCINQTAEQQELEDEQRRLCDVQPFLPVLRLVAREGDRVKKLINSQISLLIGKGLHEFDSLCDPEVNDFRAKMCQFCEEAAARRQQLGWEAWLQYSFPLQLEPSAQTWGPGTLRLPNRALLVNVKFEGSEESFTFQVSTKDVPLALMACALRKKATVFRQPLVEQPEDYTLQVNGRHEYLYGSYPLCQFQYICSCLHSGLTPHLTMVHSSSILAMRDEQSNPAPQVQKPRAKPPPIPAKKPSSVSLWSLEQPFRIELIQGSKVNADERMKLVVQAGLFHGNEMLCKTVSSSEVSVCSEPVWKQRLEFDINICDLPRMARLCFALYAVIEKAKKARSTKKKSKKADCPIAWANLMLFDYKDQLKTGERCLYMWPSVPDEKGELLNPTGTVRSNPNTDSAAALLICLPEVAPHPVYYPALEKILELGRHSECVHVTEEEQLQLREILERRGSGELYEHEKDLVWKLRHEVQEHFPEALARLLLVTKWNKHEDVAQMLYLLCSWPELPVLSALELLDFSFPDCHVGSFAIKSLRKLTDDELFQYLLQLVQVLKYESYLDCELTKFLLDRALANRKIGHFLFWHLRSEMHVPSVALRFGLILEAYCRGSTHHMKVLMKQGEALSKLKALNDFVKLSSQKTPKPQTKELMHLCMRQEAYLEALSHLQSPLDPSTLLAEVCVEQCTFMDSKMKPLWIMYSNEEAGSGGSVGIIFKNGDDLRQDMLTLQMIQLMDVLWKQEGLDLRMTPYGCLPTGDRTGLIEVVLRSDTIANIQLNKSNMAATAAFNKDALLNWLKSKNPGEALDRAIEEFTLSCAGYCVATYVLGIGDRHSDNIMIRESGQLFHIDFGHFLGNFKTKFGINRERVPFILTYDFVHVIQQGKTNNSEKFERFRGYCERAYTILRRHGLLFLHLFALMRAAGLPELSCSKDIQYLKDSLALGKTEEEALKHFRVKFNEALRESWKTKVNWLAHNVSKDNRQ

[3] = Intrinsic clearance in rat microsomes; type: ADME, Microsome
[4] = Intrinsic clearance in human microsomes; type: ADME, Microsome
[5] = Kinetic solubility of the compound in pH 7.4 phosphate buffered saline measured after 1 hr; type: physicochemical; details: read-out: Kinetic_solubility
[6] = Lipophilicity, logP of the compound by reversed phase column chromatography; type: physicochemical
[7] = Inhibition of PI3K/AKT/mTOR in human lung fibroblasts assessed as reduction in AKT phosphorylation at serine473 residue preincubated for 1 hr followed by PDGF-BB stimulation and measured after 10 mins by electrochemiluminescence method
[8] = biological target: Phosphatidylinositol 4,5-bisphosphate 3-kinase catalytic subunit alpha isoform (Homo sapiens, UniProt P42336)
Phosphatidylinositol 4,5-bisphosphate 3-kinase catalytic subunit alpha isoform, sequence (P42336 whole entry, canonical isoform): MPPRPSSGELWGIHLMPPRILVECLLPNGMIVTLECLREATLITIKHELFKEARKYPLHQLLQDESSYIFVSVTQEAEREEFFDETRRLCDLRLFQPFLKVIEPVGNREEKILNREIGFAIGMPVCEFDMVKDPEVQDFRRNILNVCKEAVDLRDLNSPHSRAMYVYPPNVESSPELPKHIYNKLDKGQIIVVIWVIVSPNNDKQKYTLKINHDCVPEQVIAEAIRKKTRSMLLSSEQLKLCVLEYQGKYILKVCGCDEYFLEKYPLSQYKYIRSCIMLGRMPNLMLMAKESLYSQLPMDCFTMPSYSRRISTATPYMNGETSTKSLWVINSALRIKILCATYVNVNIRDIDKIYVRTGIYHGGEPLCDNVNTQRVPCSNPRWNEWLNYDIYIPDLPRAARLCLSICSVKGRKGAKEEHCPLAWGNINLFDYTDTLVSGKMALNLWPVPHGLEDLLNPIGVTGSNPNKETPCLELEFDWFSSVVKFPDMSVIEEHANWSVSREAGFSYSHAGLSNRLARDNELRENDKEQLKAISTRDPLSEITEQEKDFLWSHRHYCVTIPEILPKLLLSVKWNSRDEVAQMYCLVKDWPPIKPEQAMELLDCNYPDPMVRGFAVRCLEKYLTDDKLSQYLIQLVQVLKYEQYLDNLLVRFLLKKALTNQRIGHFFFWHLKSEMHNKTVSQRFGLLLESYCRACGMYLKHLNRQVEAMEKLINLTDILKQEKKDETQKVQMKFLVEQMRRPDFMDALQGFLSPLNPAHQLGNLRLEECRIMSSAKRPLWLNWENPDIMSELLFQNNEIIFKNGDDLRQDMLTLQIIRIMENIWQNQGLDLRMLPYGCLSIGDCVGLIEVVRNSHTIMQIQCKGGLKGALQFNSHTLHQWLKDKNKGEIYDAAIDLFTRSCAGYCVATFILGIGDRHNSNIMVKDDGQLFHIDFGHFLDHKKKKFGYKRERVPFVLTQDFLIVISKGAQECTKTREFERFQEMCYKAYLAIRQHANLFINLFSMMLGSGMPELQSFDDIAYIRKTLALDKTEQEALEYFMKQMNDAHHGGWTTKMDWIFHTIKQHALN
Description: Inhibition of PI3Kalpha (unknown origin) using PIP2 as substrate preincubated for 15 mins followed by substrate addition and measured after 1 hr by HTRF assay

Row | SMILES | pIC50 [1] | IC50 [2] | CL [3] | CL [4] | solubility kinetic at 1 h [5] | logP [6] | IC50 [7] | IC50 [8]
1 | CCNC(=O)Nc1ccc(-c2nccc(N3CCOC[C@@H]3C)n2)cc1 | 6.1 | 5.01 µM | 2 mL/min/g | 1.2 mL/min/g | 136 µg/mL (≈ 398 µM) | 3.4 | 1.26 µM | 6.31 µM
2 | CCNC(=O)Nc1ccc(-c2nc(CS(C)(=O)=O)cc([C@]34CCOC[C@H]3C4)n2)cc1 | 7 | 7.94 µM | – | – | 96 µg/mL (≈ 223 µM) | 3.6 | 0.501 µM | > 31.6 µM
3 | CCNC(=O)Nc1ccc(-c2nccc([C@@]34CCOC[C@@H]3C4)n2)cc1 | 5.5 | 25.1 µM | 16.7 mL/min/g | 1.4 mL/min/g | 127 µg/mL (≈ 375 µM) | 3.9 | 3.16 µM | > 31.6 µM
4 | CCNC(=O)Nc1ccc(-c2nc(N3CCOC[C@@H]3C)cc(C(C)(C)S(C)(=O)=O)n2)cc1 | 7.3 | 7.94 µM | – | – | 130 µg/mL (≈ 282 µM) | 4.4 | 0.0501 µM | 7.94 µM
5 | C[C@H]1COCCN1c1cc(CS(C)(=O)=O)nc(-c2cccc(O)c2)n1 | 6.7 | 1 µM | – | – | 113 µg/mL (≈ 311 µM) | 3.3 | 2.51 µM | 1 µM
6 | CCNC(=O)Nc1ccc(-c2nccc(C34CCOCC3C4)n2)cc1 (centres undefined) | 5.8 | 5.01 µM | – | – | 111 µg/mL (≈ 328 µM) | 4 | 3.16 µM | 12.6 µM
7 | CCNC(=O)Nc1ccc(-c2nc(C(C)(C)S(C)(=O)=O)cc([C@@]34CCOC[C@@H]3C4)n2)cc1 | 6.6 | 15.8 µM | – | – | 78 µg/mL (≈ 170 µM) | 4.7 | 0.158 µM | 25.1 µM
8 | CS(=O)(=O)Cc1cc([C@@]23CCOC[C@@H]2C3)nc(-c2cccc(O)c2)n1 | 5.9 | 3.98 µM | – | – | 145 µg/mL (≈ 402 µM) | 3.7 | 5.01 µM | 7.94 µM
9 | CCNC(=O)Nc1ccc(-c2nc(CS(C)(=O)=O)cc([C@@]34CCOC[C@@H]3C4)n2)cc1 | 6.1 | 25.1 µM | – | – | 77 µg/mL (≈ 179 µM) | 3.6 | 1.58 µM | > 31.6 µM
10 | CCNC(=O)Nc1ccc(-c2nccc(N3CCOCC3)n2)cc1 | 6.5 | 10 µM | – | – | 109 µg/mL (≈ 333 µM) | 2.7 | 3.98 µM | 12.6 µM
11 | CNCC(=O)Nc1ccc(-c2nc(CS(C)(=O)=O)cc([C@]34CCOC[C@H]3C4)n2)cc1 | 7.4 | > 31.6 µM | – | – | 158 µg/mL (≈ 367 µM) | 3.1 | 0.794 µM | > 31.6 µM
12 | CNCC(=O)Nc1ccc(-c2nc(CS(C)(=O)=O)cc([C@@]34CCOC[C@@H]3C4)n2)cc1 | 7.1 | 15.8 µM | – | – | 167 µg/mL (≈ 388 µM) | 3.1 | 1.26 µM | > 31.6 µM
13 | CNCC(=O)Nc1ccc(-c2nc(C(C)(C)S(C)(=O)=O)cc([C@@]34CCOC[C@@H]3C4)n2)cc1 | 7.3 | 1.26 µM | – | – | 257 µg/mL (≈ 560 µM) | 4.3 | 0.158 µM | 25.1 µM
14 | CC(C)(c1cc([C@@]23CCOC[C@@H]2C3)nc(-c2cccc(O)c2)n1)S(C)(=O)=O | < 5.4 | 7.94 µM | – | – | 148 µg/mL (≈ 381 µM) | 4.8 | 5.01 µM | 10 µM
15 | CCNC(=O)Nc1ccc(-c2nc(CS(C)(=O)=O)cc(N3CCOCC3)n2)cc1 | 7.3 | – | – | – | – | 2.7 | 1.26 µM | –
16 | CS(=O)(=O)Cc1cc([C@]23CCOC[C@H]2C3)nc(-c2cccc(O)c2)n1 | 5.8 | 15.8 µM | – | – | 75 µg/mL (≈ 208 µM) | 3.7 | 3.16 µM | 20 µM
17 | Oc1cccc(-c2nccc(C3CCOCC3)n2)c1 | 4.5 | 7.94 µM | – | – | 100 µg/mL (≈ 390 µM) | 3.3 | 20 µM | 15.8 µM

Row | SMILES | pIC50 [1] | IC50 [2] | CL [3] | CL [4] | solubility kinetic at 1 h [5] | logP [6] | IC50 [7] | IC50 [8]
18 | CS(=O)(=O)Cc1cc(C2=CCOCC2)nc(-c2cccc(O)c2)n1 | 6.4 | 1.58 µM | – | – | 27 µg/mL (≈ 77.9 µM) | 3.3 | 0.794 µM | 6.31 µM
19 | CCNC(=O)Nc1ccc(-c2nc(C(C)(C)S(C)(=O)=O)cc([C@]34CCOC[C@H]3C4)n2)cc1 | 6.9 | 25.1 µM | – | – | 74 µg/mL (≈ 161 µM) | 4.7 | 0.0631 µM | > 31.6 µM
20 | Oc1cccc(-c2nccc(C3=CCOCC3)n2)c1 | 5.7 | 1.26 µM | – | – | 113 µg/mL (≈ 444 µM) | 3.6 | 3.16 µM | 3.16 µM
21 | Oc1cccc(-c2nccc(C34CCOCC3C4)n2)c1 (centres undefined) | 4.8 | 3.98 µM | – | – | 102 µg/mL (≈ 380 µM) | 4.1 | 7.94 µM | 6.31 µM
22 | C[C@H]1COCCN1c1ccnc(-c2cccc(O)c2)n1 | 5.7 | 1 µM | – | – | 119 µg/mL (≈ 439 µM) | 3.3 | 3.98 µM | 1.58 µM
23 | Oc1cccc(-c2nccc([C@@]34CCOC[C@@H]3C4)n2)c1 | < 3 | 3.16 µM | – | – | 123 µg/mL (≈ 458 µM) | 4 | 10 µM | 6.31 µM
24 | Oc1cccc(-c2nccc([C@]34CCOC[C@H]3C4)n2)c1 | 5.1 | 1.26 µM | – | – | 141 µg/mL (≈ 525 µM) | 4 | 7.94 µM | 2.51 µM
25 | CCNC(=O)Nc1ccc(-c2nc(CS(C)(=O)=O)cc(N3CCOC[C@@H]3C)n2)cc1 | 7.1 | 20 µM | – | – | 212 µg/mL (≈ 489 µM) | 3.2 | 0.316 µM | 15.8 µM
26 | CC(C)(c1cc([C@@]23CCOC[C@@H]2C3)nc(-c2ccc(NC(=S)NCCO)cc2)n1)S(C)(=O)=O | 8.2 | 25.1 µM | – | – | 145 µg/mL (≈ 296 µM) | 3.9 | 0.0794 µM | 7.94 µM
27 | C[C@H]1COCCN1c1cc(C(C)(C)S(C)(=O)=O)nc(-c2cccc(O)c2)n1 | 5.7 | 3.16 µM | – | – | 121 µg/mL (≈ 309 µM) | 4.4 | 1.26 µM | 3.16 µM
28 | CCNC(=O)Nc1ccc(-c2nccc(C3=CCOCC3)n2)cc1 | 6 | 15.8 µM | – | – | 24 µg/mL (≈ 74 µM) | 3.6 | 3.98 µM | 20 µM
29 | CNCC(=O)Nc1ccc(-c2nc(CS(C)(=O)=O)cc(N3CCOC[C@@H]3C)n2)cc1 | 7.7 | 12.6 µM | – | – | 90 µg/mL (≈ 208 µM) | 2.6 | 0.501 µM | 25.1 µM
30 | Oc1cccc(-c2nccc(N3CCOCC3)n2)c1 | 5.9 | 0.251 µM | – | – | 107 µg/mL (≈ 416 µM) | 2.7 | 2 µM | 0.501 µM
31 | CNCC(=O)Nc1ccc(-c2nc(N3CCOC[C@@H]3C)cc(C(C)(C)S(C)(=O)=O)n2)cc1 | 8 | 1.58 µM | – | – | 198 µg/mL (≈ 429 µM) | 4.1 | 0.0501 µM | 15.8 µM
32 | CNCC(=O)Nc1ccc(-c2nc(C(C)(C)S(C)(=O)=O)cc([C@]34CCOC[C@H]3C4)n2)cc1 | 7.6 | 12.6 µM | – | – | 217 µg/mL (≈ 473 µM) | 4.3 | 0.1 µM | > 31.6 µM
33 | CC(C)(c1cc([C@]23CCOC[C@H]2C3)nc(-c2cccc(O)c2)n1)S(C)(=O)=O | 5.5 | 10 µM | – | – | 135 µg/mL (≈ 348 µM) | 4.8 | 1.26 µM | 15.8 µM
